In the supplement of paper PMC10307832:

Key:
Test in all cases: relative viability (nuclei count vs DMSO), 5 days (fraction); higher = more cells survive
[1] = compound: O=C(C[C@H]1NCCC[C@@H]1O)Cn1cnc2cc(Br)c(Cl)cc2c1=O (racemic) [Halofuginone] + CC(=O)c1c(C)c2cnc(Nc3ccc(N4CCNCC4)cn3)nc2n(C2CCCC2)c1=O [Palbociclib] (partner 0.5 µM)
How it was run: (§1)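 For relative viability, nuclei counts in treated wells were divided by those in vehicle wells. Lung cancer cell lines had been pin-tool dosed in 1536-well plates the day after seeding and cultured for 5 days, then fixed and stained in one step (final 0.05% Triton X-100, 1% formaldehyde, 1 ug/ml Hoechst) and imaged at 4×. Doses were one drug alone or a fixed anchor-drug dose plus five library-drug doses (not always all listed) in √10 steps, and values are duplicate-plate medians.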

Decitabine + Crizotinib = compound: Nc1ncn([C@H]2C[C@H](O)[C@@H](CO)O2)c(=O)n1 [Decitabine] + C[C@@H](Oc1cc(-c2cnn(C3CCNCC3)c2)cnc1N)c1c(Cl)ccc(F)c1Cl [Crizotinib] (partner 1 µM)
How it was run: as §1

Decitabine + Pictilisib = compound: Nc1ncn([C@H]2C[C@H](O)[C@@H](CO)O2)c(=O)n1 [Decitabine] + CS(=O)(=O)N1CCN(Cc2cc3nc(-c4cccc5[nH]ncc45)nc(N4CCOCC4)c3s2)CC1 [Pictilisib] (partner 1 µM)
How it was run: as §1

Cediranib + Palbociclib = compound: COc1cc2c(Oc3ccc4[nH]c(C)cc4c3F)ncnc2cc1OCCCN1CCCC1 [Cediranib] + CC(=O)c1c(C)c2cnc(Nc3ccc(N4CCNCC4)cn3)nc2n(C2CCCC2)c1=O [Palbociclib] (partner 0.5 µM)
How it was run: as §1

Cell Line | relative viability ([1]; first compound 0.001 µM) | relative viability ([1]; first compound 0.003162 µM) | relative viability ([1]; first compound 0.01 µM) | relative viability ([1]; first compound 0.03162 µM) | relative viability ([1]; first compound 0.1 µM) | relative viability (Decitabine + Crizotinib; first compound 0.04 µM) | relative viability (Decitabine + Crizotinib; first compound 0.1265 µM) | relative viability (Decitabine + Crizotinib; first compound 0.4 µM) | relative viability (Decitabine + Crizotinib; first compound 1.265 µM) | relative viability (Decitabine + Crizotinib; first compound 4 µM) | relative viability (Decitabine + Pictilisib; first compound 0.04 µM) | relative viability (Decitabine + Pictilisib; first compound 0.1265 µM) | relative viability (Decitabine + Pictilisib; first compound 0.4 µM) | relative viability (Decitabine + Pictilisib; first compound 1.265 µM) | relative viability (Decitabine + Pictilisib; first compound 4 µM) | relative viability (Cediranib + Palbociclib; first compound 0.04 µM) | relative viability (Cediranib + Palbociclib; first compound 0.1265 µM) | relative viability (Cediranib + Palbociclib; first compound 0.4 µM) | relative viability (Cediranib + Palbociclib; first compound 1.265 µM) | relative viability (Cediranib + Palbociclib; first compound 4 µM)
LOU-NH91 | 0.567 | 0.515 | 0.494 | 0.492 | 0.589 | 0.509 | 0.683 | 0.615 | 0.613 | 0.656 | 0.518 | 0.478 | 0.517 | 0.518 | 0.495 | 0.55 | 0.561 | 0.51 | 0.513 | 0.533
LU99A | 0.444 | 0.466 | 0.393 | 0.401 | 0.41 | 0.517 | 0.491 | 0.631 | 0.439 | 0.317 | 0.369 | 0.325 | 0.355 | 0.308 | 0.311 | 0.422 |  | 0.361 | 0.408 | 0.518
NCI-H522 | 0.861 | 0.756 | 0.829 | 1.04 | 0.95 |  |  |  |  |  |  |  |  |  |  | 1.04 | 0.899 | 0.891 | 0.998 | 1.07
NCI-H596 |  |  |  |  |  | 0.939 | 1.02 | 0.353 | 0.772 | 0.755 | 0.38 | 0.416 | 0.304 | 0.358 | 0.633 |  |  |  |  | 
NCI-H1299 |  |  |  |  |  | 0.979 | 0.991 | 0.956 | 0.85 | 0.856 | 0.836 | 0.881 | 0.829 | 0.619 | 0.505 |  |  |  |  | 
NCI-H1395 | 0.645 | 0.589 | 0.542 | 0.553 | 0.458 |  |  |  |  |  | 0.57 | 0.579 | 0.522 | 0.417 | 0.458 | 0.622 | 0.615 | 0.629 | 0.623 | 0.535
NCI-H1563 |  |  |  |  |  | 0.947 | 0.861 | 0.908 | 0.905 | 0.799 | 0.682 | 0.63 | 0.779 | 0.693 | 0.635 |  |  |  |  | 
NCI-H1648 | 0.28 | 0.322 | 0.178 | 0.261 | 0.249 |  |  |  |  |  |  |  |  |  |  | 0.28 | 0.242 | 0.287 | 0.307 | 0.633
NCI-H1703 |  |  |  |  |  | 0.397 | 0.419 | 0.214 | 0.263 | 0.134 | 0.29 | 0.258 | 0.196 | 0.234 | 0.181 |  |  |  |  | 
NCI-H1793 | 0.271 | 0.348 | 0.292 | 0.335 | 0.196 |  |  |  |  |  | 0.308 | 0.351 | 0.245 | 0.302 | 0.224 | 0.306 | 0.277 | 0.3 | 0.271 | 0.311
NCI-H2342 | 0.503 | 0.578 | 0.511 | 0.512 | 0.527 |  |  |  |  |  |  |  |  |  |  | 0.562 | 0.52 | 0.451 | 0.534 | 0.479
SW 900 | 0.626 | 0.483 |  | 0.622 | 0.215 |  |  |  |  |  |  |  |  |  |  | 0.569 | 0.677 | 0.552 | 0.575 | 0.594
